Results as given in patent US20240336627A1, “NOVEL COMPOUNDS FOR THE DIAGNOSIS OF TDP-43 PROTEINOPATHIES” (AC IMMUNE SA, priority 2021, published 2024).
Entries after “also recorded” stand apart in the source; their conditions may differ. Where two headings read alike, the source gives them in different places.

Tests used:
[1] = molecular target: T1, Human brain derived TDP-43 aggregates (Homo sapiens, UniProt Q13148); experiment: Micro-radiobinding competition assay on human FTD sarkosyl-insoluble brain extracts; assay type: binding; settings: radioligand [3H]-Compound 52 (75 nM); for Human brain derived TDP-43 aggregates Mean % competition at 250 nM: 250 nM test compound; for Human brain derived TDP-43 aggregates Mean % competition at 2 μM: 2 μM test compound; for Ki: 0.24 nM to 2 μM test compound
T1 construct: A sample of brain tissue (frontal or temporal cortex) was homogenized; from tissue; host or cells: sarkosyl-insoluble fraction of human FTD brain (frontal or temporal cortex)
T1 sequence (Q13148 whole entry): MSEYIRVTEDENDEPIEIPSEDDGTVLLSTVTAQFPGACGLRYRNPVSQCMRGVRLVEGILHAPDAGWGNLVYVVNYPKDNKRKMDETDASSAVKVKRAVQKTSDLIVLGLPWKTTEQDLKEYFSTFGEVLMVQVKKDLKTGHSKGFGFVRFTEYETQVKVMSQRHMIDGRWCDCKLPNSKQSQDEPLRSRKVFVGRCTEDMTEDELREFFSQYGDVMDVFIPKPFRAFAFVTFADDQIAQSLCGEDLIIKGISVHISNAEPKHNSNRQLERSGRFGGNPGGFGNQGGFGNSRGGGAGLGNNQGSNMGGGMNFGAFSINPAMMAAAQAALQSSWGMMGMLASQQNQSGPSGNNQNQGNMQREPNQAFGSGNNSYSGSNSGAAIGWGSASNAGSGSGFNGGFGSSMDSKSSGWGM
Procedure: Human brain extracts were prepared as described in Laferriere et al., 2019, Nature Neurosc. A sample of brain tissue (frontal or temporal cortex) was homogenized at 1:4 (w/v) ratio in the homogenization-solubilization (HS) buffer at 4° C. using tissue homogenizer (Precellys) with CKmix homogenization tubes. The following sequence was used for homogenization: 3 cycles of 30 seconds at 5000 rpm (with 15 seconds pause between each cycle). Homogenized samples were aliquoted and stored at −80° C. in 1.5 mL low protein binding tubes.
Brain homogenates were thawed on ice and resuspended in HS buffer to obtain a final concentration of 2% sarkosyl, 1 unit/μL Benzonase and 1 mM MgCl2. The samples were then incubated at 37° C. under constant shaking at 600 rpm on a thermomixer for 45 minutes (min). The supernatants were collected in a new tube (sarkosyl-soluble fraction, S1). The pellet was resuspended in 1000 μL of myelin floatation buffer and centrifuged at 20,000 g for 60 min at 4° C. The supernatant was carefully removed to remove all the floating lipids. This step was repeated if all the lipids could not be removed in a single step. The pellet was subsequently washed with Phosphate-Buffered Saline (PBS) and centrifuged for 30 min at 20,000 g at 4° C. The final pellet was resuspended in 200 μL PBS and stored at −80° C. (sarkosyl-insoluble fraction). The samples were analyzed by immunoblotting in denaturing conditions.
Human FTD sarkosyl-insoluble brain extracts were spotted onto microarray slides. The slides were incubated with [^3H]-Compound 52 or [^3H]-Compound 16 ligands at 75 nM or 40 nM, respectively, and the example compounds (non-radiolabelled) at 2 μM and 250 nM. In some cases, the non-radiolabelled example compounds were further assessed for a range of different concentrations, varying from 0.24 nM to 2 μM for determination of the inhibition constant (Ki). After incubation, slides were washed and scanned by a real-time autoradiography system (BeaQuant, ai4R). Quantification of the signal was performed by using the Beamage image analysis software (ai4R). Non-specific signal was determined with an excess of non-radiolabelled compound 52 or compound 16 (2 μM) and specific binding was calculated by subtracting the non-specific signal from the total signal. Competition was calculated as percent, where 0% was defined as the specific binding in the presence of vehicle and 100% as the values obtained in the presence of excess of the non-radiolabelled compound 52 or compound 16. Ki values were calculated in GraphPad Prism7 by applying a nonlinear regression curve fit using a one site, specific binding model. Measurements were performed with at least two technical replicates in the two-concentration competition experiment and with one technical replicate in the experiments including a range of concentrations. For compounds tested in more than one experiment, the mean of the replicates or Ki values in independent experiments is reported.

[2] = molecular target: T2, recombinant flag-tagged TDP-43 aggregates (Homo sapiens, UniProt Q13148); experiment: Kd determination on recombinant TDP-43 aggregates with filter-binding assay
T2 construct: FLAG
T2 sequence (Q13148 whole entry): as above
Procedure: The TDP-43 aggregation protocol (Shimonaka et al., 2016) was implemented to generate TDP-43 aggregates. The protein preparation of high purity without any degradation was used for the aggregation procedure.
2.1 Kd Determination on Recombinant TDP-43 Aggregates with Filter-Binding Assay of [^3H]-Compound 1
Recombinant flag-tagged TDP-43 aggregates (1.3 μM) were incubated in the presence of [^3H]-Compound 1 with increasing concentrations of radioligand from 0 to 150 nM in a total reaction volume of 100 μL, for two hours at room temperature. 45 μL of sample (corresponding to each concentration) in duplicate was filtered under vacuum on a UniFilter-96 GF/C plate. The filters were washed 5 times with ice-cold buffer (50 mM Tris pH 7.4) and then dried overnight. 30 μL scintillation liquid was added in each well for 30 minutes before quantifying the signal on a Microbeta Trilux device (Perkin Elmer). The non-specific signal was determined with an excess of unlabeled Compound 1 (10 μM) and the specific binding was calculated by subtracting the non-specific signal from the total signal.

[3] = molecular target: T3, pTDP-43 aggregates in FTLD-TDP brain sections (Homo sapiens, UniProt Q13148); experiment: Micro-autoradiography staining in brain sections from patients with FTD; assay type: binding; settings: 60 nM radioligand, frontal cortex brain sections from FTLD-TDP donors
T3 construct: from tissue; host or cells: frozen post-mortem human brain sections from FTLD-TDP donors
T3 sequence (Q13148 whole entry): as above
Procedure: All tissues were collected from donors for or from whom a written informed consent for a brain autopsy and the use of the material and clinical information for research purposes had been obtained by the respective brain banks. All samples were anonymized and coded. Frozen brain tissue blocks with confirmed TDP-43 pathology upon autopsy were processed using a cryotome to generate sections of 10 μm in thickness and mounted on glass slides. Sections were kept at −80° C. until use.
Brain sections were immunostained using a commercially available antibody, specific for phosphorylated serine at amino acid 409/410 (anti-pTDP-43 pS409/410, Cosmobio, TIP-PTD-P02). Sections were fixed for 15 minutes at 4° C. with 4% formaldehyde (Sigma, 252549) and washed three times for five minutes with 1×PBS (Dulbecco's phosphate buffered saline, Sigma D1408) at room temperature. Next, sections were saturated and permeabilized in blocking buffer (PBS, 10% normal goat serum (NGS), 0.25% Triton X-100) for one hour at room temperature and incubated overnight at 4° C. with primary antibody against pTDP-43 (diluted at 1/250 in PBS, 5% NGS, 0.25% Triton X-100). The following day, sections were washed three times for five minutes with 1×PBS before incubation with a secondary, AlexaFluor647-labeled goat-anti-rabbit antibody (Abcam, ab150079, diluted at 1/500 in PBS) for 45 minutes at room temperature. […]

| SMILES | Human brain derived TDP-43 aggregates Mean % competition at 250 nM [1] | Human brain derived TDP-43 aggregates Mean % competition at 2 μM [1] | Ki [1] | Kd ([2]; data from three independent experiments, read-out: average Kd) | Kd ([2]; filter-binding assay, tritiated radioligand 0 to 150 nM, one-site specific binding model (FIG. 1), read-out: Kd value on recombinant flag-tagged TDP-43 aggregates) | specific binding to recombinant TDP-43 aggregates ([2]; filter-binding assay, non-specific signal subtracted) | micro-autoradiography signal (silver grains) co-localization with pTDP-43 antibody staining [3] |
| --- | --- | --- | --- | --- | --- | --- | --- |
| Nc1cc(N2CCc3nc(-c4cnc(N5CC[C@@H](F)C5)nc4)sc3C2=O)ccc1F [Example 46] | 62.5ª % | 85.9ª % | 93 nM | – | – | – | – |
| Cn1cc(N2CCc3nc(-c4ccc(N5CC[C@@H](F)C5)nc4)sc3C2=O)cn1 [[^3H]-Compound 1, (R)-2-(6-(3-fluoropyrrolidin-1-yl)pyridin-3-yl)-5-(1-methyl-1H-pyrazol-4-yl)-6,7-dihydrothiazolo[5,4-c]pyridin-4(5H)-one] | – | – | – | 18.4 ± 4 nM | 15 nM | high specific binding | Accumulation of silver grains on pTDP-43 aggregates; also recorded: showed co-localization with pTDP-43 aggregates |
| N#Cc1ccc(N2CCc3nc(-c4ccc(N5CCCC5)nc4)sc3C2=O)cc1N [Example 17] | 82.0ª % | 95.0ª % | – | – | – | – | – |
| N#Cc1c(N)cccc1N1CCc2nc(-c3ccc(N4CCCC4)nc3)sc2C1=O [Example 16, 2-amino-6-(4-oxo-2-(6-(pyrrolidin-1-yl)pyridin-3-yl)-6,7-dihydrothiazolo[5,4-c]pyridin-5(4H)-yl)benzonitrile] | 46.0ª % | 83.2ª % | 81 nM | – | – | – | – |
| Nc1ccc(N2CCc3nc(-c4cnc(N5CCCC5)nc4)sc3C2=O)cc1F [Example 43] | 45.0ª % | 69.4ª % | – | – | – | – | – |
| Cn1cc(N2CCc3nc(-c4ccc(N5CC[C@@H](F)C5)cc4)sc3C2=O)cn1 [Example 27] | 54.3ª % | 80.2ª % | 128 nM | – | – | – | – |
| Nc1cc(N2CCc3nc(-c4ccc(N5CCCC5)cn4)sc3C2=O)ccc1F [Example 34] | 72.8ª % | 67.9ª % | – | – | – | – | – |
| Nc1cccc(N2CCc3nc(-c4cnc(N5CC[C@H](F)C5)nc4)sc3C2=O)c1F [Example 47] | 50.2ª % | 81.7ª % | 152 nM | – | – | – | – |
| Nc1cccc(N2CCc3nc(-c4cnc(N5CCC[C@H](F)C5)nc4)sc3C2=O)c1F [Example 48] | 46.9ª % | 77.9ª % | 73.6 nM | – | – | – | – |
